From ChEMBL document CHEMBL4346666, “Synthesis, mitochondrial localization of fluorescent derivatives of cinnamamide as anticancer agents” (Eur J Med Chem, 2019)
Activity calls are given as the source filed them. The calls are words filed in the database; no cut-off is given here.

Tests used:
HL-60 [1] = test: Induction of apoptosis in human HL60 cells assessed as late apoptotic cells or necrotic cells at 15 uM after 48 hrs by Annexin-V-FITC/propidium iodide staining based flow cytometry (reference value: 0.39%); assay type: functional
HL-60 [2] = test: Induction of ROS generation in human HL60 cells after 6 hrs by DCFH-DA probe based flow cytometry analysis; assay type: functional, cell-based
HL-60 [3] = test: Induction of cell cycle arrest in human HL60 cells assessed as accumulation at S-phase at 20 uM after 48 hrs by propidium iodide staining-based flow cytometry (reference value: 14.88%); assay type: functional
HL-60 [4] = test: Cytotoxicity against human HL60 cells assessed as cell viability at 20 uM measured after 48 hrs by MTT assay relative to control; assay type: functional; settings: HL-60, 48 h, read-out: Activity
HL-60 [5] = test: Induction of cell cycle arrest in human HL60 cells assessed as accumulation at G2/M phase at 15 uM after 48 hrs by propidium iodide staining based flow cytometry (reference value: 1.60%); assay type: functional
HL-60 [6] = test: Induction of cell cycle arrest in human HL60 cells assessed as accumulation at sub G0/G1 phase at 15 uM after 48 hrs by propidium iodide staining based flow cytometry (reference value: 0%)l; assay type: functional
HeLa = test: Cytotoxicity against human HeLa cells assessed as cell viability at 20 uM measured after 48 hrs by MTT assay relative to control; assay type: functional; settings: read-out: Activity
[7] = Binding affinity to cysteamine residue assessed as hypochromic effect at 20 uM incubated for up to 1 hr by UV-Vis absorption spectrophotometric method
HL-60 [8] = test: Induction of cell cycle arrest in human HL60 cells assessed as accumulation at sub G0/G1 phase at 10 uM after 48 hrs by propidium iodide staining based flow cytometry (reference value: 0%); assay type: functional
[9] = Drug uptake in human HL60 cells by flow cytometry; assay type: ADME, cell-based; settings: hl-60
HL-60 [10] = test: Induction of cell cycle arrest in human HL60 cells assessed as accumulation at G0/G1 phase at 20 uM after 48 hrs by propidium iodide staining based flow cytometry (reference value: 83.52%); assay type: functional
HL-60 [11] = test: Induction of cell cycle arrest in human HL60 cells assessed as accumulation at S-phase at 10 uM after 48 hrs by propidium iodide staining based flow cytometry (reference value: 14.88%); assay type: functional
HL-60 [12] = test: Cell cycle arrest in human HL60 cells assessed as decrease in accumulation at S phase after 48 hrs by propidium iodide staining based flow cytometry; assay type: functional
HL-60 [13] = test: Induction of cell cycle arrest in human HL60 cells assessed as accumulation at G0/G1 phase at 10 uM after 48 hrs by propidium iodide staining based flow cytometry (reference value: 83.52%); assay type: functional
HL-60 [14] = test: Induction of mitochondrial dysfunction in human HL60 cells assessed as decrease in mitochondrial membrane potential at 15 uM measured after 48 hrs by TMRE probe-based flow cytometry relative to control; assay type: functional
HepG2 = test: Cytotoxicity against human HepG2 cells assessed as cell viability at 20 uM measured after 48 hrs by MTT assay relative to control; assay type: functional; settings: HepG2, 48 h, read-out: Activity
HL-60 [15] = test: Cell cycle arrest in human HL60 cells assessed as decrease in accumulation at G2/M phase after 48 hrs by propidium iodide staining based flow cytometry; assay type: functional
[16] = Drug uptake in human HL60 cells at 20 uM measured after 1.5 hrs by spectrofluorimetric analysis relative to PBMC cells; assay type: ADME, cell-based; settings: hl-60, 1.5 h
HL-60 [17] = test: Induction of mitochondrial dysfunction in human HL60 cells assessed as decrease in mitochondrial membrane potential at 10 uM measured after 48 hrs by TMRE probe-based flow cytometry relative to control; assay type: functional
HL-60 [18] = test: Induction of cell cycle arrest in human HL60 cells assessed as accumulation at G2/M phase at 10 uM after 48 hrs by propidium iodide staining based flow cytometry (reference value: 1.60%); assay type: functional
HL-60 [19] = test: Cytotoxicity against human HL60 cells assessed as reduction in cell viability measured after 48 hrs by MTT assay; assay type: functional, cell-based; settings: HL-60, 48 h
HL-60 [20] = test: Induction of apoptosis in human HL60 cells assessed as late apoptotic cells or necrotic cells at 20 uM after 48 hrs by Annexin-V-FITC/propidium iodide staining based flow cytometry (reference value: 0.39%); assay type: functional
[21] = Binding affinity to cysteamine residue by ESI-MS analysis
[22] = Drug uptake in human HL60 cells at 20 uM measured after 3 hrs by spectrofluorimetric analysis relative to PBMC cells; assay type: ADME, cell-based; settings: hl-60, 3 h
HL-60 [23] = test: Induction of apoptosis in human HL60 cells assessed as increase in late apoptotic or necrotic cells after 48 hrs by Annexin-V-FITC/propidium iodide staining based flow cytometry relative to control; assay type: functional, cell-based
HL-60 [24] = test: Cytotoxicity against human HL60 cells assessed as reduction in cell viability measured after 48 hrs in presence of ROS scavenger N-acetyl-L-cysteine and VE by MTT assay; assay type: functional, cell-based
HL-60 [25] = test: Induction of apoptosis in human HL60 cells assessed as early apoptotic cells at 10 uM after 48 hrs by Annexin-V-FITC/propidium iodide staining based flow cytometry (reference value: 0.71%); assay type: functional
HL-60 [26] = test: Induction of apoptosis in human HL60 cells assessed as late apoptotic cells or necrotic cells at 10 uM after 48 hrs by Annexin-V-FITC/propidium iodide staining based flow cytometry (reference value: 0.39%); assay type: functional
HL-60 [27] = test: Induction of apoptosis in human HL60 cells assessed as early apoptotic cells at 20 uM after 48 hrs by Annexin-V-FITC/propidium iodide staining based flow cytometry (reference value: 0.71%); assay type: functional
HL-60 [28] = test: Induction of cell cycle arrest in human HL60 cells assessed as accumulation at G0/G1 phase at 15 uM after 48 hrs by propidium iodide staining based flow cytometry (reference value: 83.52%); assay type: functional
[29] = Drug localization in mitochondria of human HL60 cells at 1 uM measured after 30 mins by […] dye-based confocal microscopy; assay type: ADME; settings: hl-60, 0.5 h
[30] = Drug uptake in human HL60 cells at 20 uM measured after 0.5 hrs by spectrofluorimetric analysis relative to PBMC cells; assay type: ADME, cell-based; settings: hl-60, 0.5 h
HL-60 [31] = test: Induction of mitochondrial dysfunction in human HL60 cells assessed as decrease in mitochondrial membrane potential at 20 uM measured after 48 hrs by TMRE probe-based flow cytometry relative to control; assay type: functional
MCF7 = test: Cytotoxicity against human MCF7 cells assessed as cell viability at 20 uM measured after 48 hrs by MTT assay relative to control; assay type: functional; settings: MCF7, 48 h, read-out: Activity
PBMC = test: Cytotoxicity against human PBMC assessed as reduction in cell viability measured after 48 hrs by MTT assay; assay type: cell-based
HL-60 [32] = test: Induction of apoptosis in human HL60 cells assessed as early apoptotic cells at 15 uM after 48 hrs by Annexin-V-FITC/propidium iodide staining based flow cytometry (reference value: 0.71%); assay type: functional
[33] = Drug localization in mitochondria of human HepG2 cells at 1 uM measured after 30 mins by […] dye-based confocal microscopy; assay type: ADME; settings: hepg2, 0.5 h
[34] = Binding affinity to cysteamine residue at 1:1 to 5:1 stoichiometric ratio of cysteamine to compound incubated for up to 1 hr by UV-Vis absorption spectrophotometric method
HL-60 [35] = test: Induction of cell cycle arrest in human HL60 cells assessed as accumulation at S phase at 15 uM after 48 hrs by propidium iodide staining based flow cytometry (reference value: 14.88%); assay type: functional
HL-60 [36] = test: Induction of cell cycle arrest in human HL60 cells assessed as accumulation at G2/M phase at 20 uM after 48 hrs by propidium iodide staining based flow cytometry (reference value: 1.60%); assay type: functional
HL-60 [37] = test: Induction of cell cycle arrest in human HL60 cells assessed as accumulation at sub G0/G1 phase at 20 uM after 48 hrs by propidium iodide staining based flow cytometry (reference value: 0%); assay type: functional

Activity [7]: Active | Drug uptake [9]: Tde and Dose-dependent effect | fold change (FC) [16]: 4.5 | Activity [21]: Active | fold change (FC) [22]: 8.9 | Drug uptake [29]: Active | fold change (FC) [30]: 4.2 | Drug uptake [33]: Active | Activity [34]: Active
Structure (SMILES): CCN(CC)c1ccc2cc(C(=O)NCCNC(=O)/C(=C/c3cc(OC)c(OC)c(OC)c3)c3ccc(OC)c(OC)c3)c(=O)oc2c1
Activity (HL-60 [1]): 38% | Activity (HL-60 [2]): Dose-dependent effect | Activity (HL-60 [3]): 55.59% | viability at 20 µM (HL-60 [4]): 25.8% | Activity (HL-60 [5]): 40.42% | Activity (HL-60 [6]): 24.1% | viability at 20 µM (HeLa): 53.8% | Activity (HL-60 [8]): 12.84% | Activity (HL-60 [10]): 2.69% | Activity (HL-60 [11]): 19.94% | Activity (HL-60 [12]): Dose-dependent effect | Activity (HL-60 [13]): 65.71% | fold change (FC) (HL-60 [14]): 0.46 | viability at 20 µM (HepG2): 56.4% | Activity (HL-60 [15]): Dose-dependent effect | fold change (FC) (HL-60 [17]): 0.76 | Activity (HL-60 [18]): 14.35% | IC50 (HL-60 [19]): 9.1 µM | Activity (HL-60 [20]): 70.2% | Activity (HL-60 [23]): Dose-dependent effect | Activity (HL-60 [24]): inactive | Activity (HL-60 [25]): 2.15% | Activity (HL-60 [26]): 16.3% | Activity (HL-60 [27]): 3.75% | Activity (HL-60 [28]): 24.15% | fold change (FC) (HL-60 [31]): 0.29 | viability at 20 µM (MCF7): 66.5% | IC50 (PBMC): > 50 µM | Activity (HL-60 [32]): 6.06% | Activity (HL-60 [35]): 35.43% | Activity (HL-60 [36]): 41.72% | Activity (HL-60 [37]): 21.44%
